Results taken from US20250011368A1, “DLL3 TARGETING PEPTIDES AND CONSTRUCTS THEREOF” (MARIANA ONCOLOGY INC., priority 2023, published 2025).
Bridge positions count the residues as written; N and C are the ends. Square brackets hold non-standard residues; d marks the D form. Peptide text beside a SMILES is read from it. * marks the point of attachment. ξ: configuration not given here. DOTA = O=C(O)CN1CCN(CC(=O)O)CCN(CC(=O)*)CCN(CC(=O)O)CC1; Trp(5-F) = N[C@@H](Cc1c[nH]c2ccc(F)cc12)C(=O)O; Phe(2-CF3) = N[C@@H](Cc1ccccc1C(F)(F)F)C(=O)O; Trp(7-aza) = N[C@@H](Cc1c[nH]c2ncccc12)C(=O)O; Pro(trans-4-F) = O=C(O)[C@@H]1C[C@@H](F)CN1; Phe(4-F) = N[C@@H](Cc1ccc(F)cc1)C(=O)O; 1Nal = N[C@@H](Cc1cccc2ccccc12)C(=O)O; 2Nal = N[C@@H](Cc1ccc2ccccc2c1)C(=O)O; Nva(3-Et) = CCC(CC)[C@H](N)C(=O)O; β3hF = N[C@H](CC(=O)O)Cc1ccccc1; Chg = N[C@H](C(=O)O)C1CCCCC1; Tle = CC(C)(C)[C@H](N)C(=O)O; αMeP = C[C@@]1(C(=O)O)CCCN1; Octanoyl = CCCCCCCC(=O)*; Aze = O=C(O)[C@@H]1CCN1; Dab = NCC[C@H](N)C(=O)O; ξK = NCCCCC(N)C(=O)O

These compounds were tested against T1, human DLL3 (Homo sapiens, UniProt Q9NYJ7) (assay: Affinity determination by Surface Plasmon Resonance (SPR)). Settings: 25° C., biotinylated human DLL3 immobilized on streptavidin sensor chip, 1:1 binding model; read-out: SPR KD.
T1 sequence (Q9NYJ7 27-618): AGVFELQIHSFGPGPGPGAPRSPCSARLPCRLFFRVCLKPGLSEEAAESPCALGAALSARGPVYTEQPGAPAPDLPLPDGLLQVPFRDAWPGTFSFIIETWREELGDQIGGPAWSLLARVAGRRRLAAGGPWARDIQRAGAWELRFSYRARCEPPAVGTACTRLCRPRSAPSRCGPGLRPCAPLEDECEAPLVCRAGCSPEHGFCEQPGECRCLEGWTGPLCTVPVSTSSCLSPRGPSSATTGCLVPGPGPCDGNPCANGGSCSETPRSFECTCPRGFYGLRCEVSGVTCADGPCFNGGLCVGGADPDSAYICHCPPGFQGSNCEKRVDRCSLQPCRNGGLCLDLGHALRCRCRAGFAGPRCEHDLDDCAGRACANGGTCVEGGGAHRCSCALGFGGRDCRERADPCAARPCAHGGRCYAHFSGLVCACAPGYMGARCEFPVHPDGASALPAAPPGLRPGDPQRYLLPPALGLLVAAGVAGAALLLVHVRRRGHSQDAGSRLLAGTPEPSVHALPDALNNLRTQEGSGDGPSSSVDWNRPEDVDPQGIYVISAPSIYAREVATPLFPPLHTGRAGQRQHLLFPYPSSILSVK
Assay type: binding
Procedure: SPR studies were performed on the compounds disclosed herein using the following protocol.
Biotinylated target ligand human DLL3 was immobilized on a streptavidin sensor chip. A reference surface was set up for nonspecific binding and refractive index changes. For analysis of the kinetics of interactions, varying concentrations of samples were injected at a flow rate of 100 μL/minute using running buffer containing 20 mM phosphate buffer with 2.7 mM KCl, 137 mM NaCl, 0.05% Surfactant P20 and 2% DMSO. Sensorgram curves were fitted with 1:1 binding model, and affinity and kinetic parameters were obtained using Biacore Insight evaluation 4.0. software.

Kd	SMILES
10 to 100 nM	CCCCCCCC(=O)NCC[C@@H]1NC(=O)[C@H](Cc2c[nH]c3ccccc23)NC(=O)[C@H](CC(N)=O)NC(=O)[C@H](CC(N)=O)NC(=O)[C@@H](NC(=O)[C@@H](NC(=O)[C@@H](NC(=O)[C@H](Cc2c[nH]c3ccccc23)NC(C)=O)[C@@H](C)O)[C@@H](C)CC)CSSC[C@@H](C(=O)N[C@@H](Cc2c[nH]c3ccccc23)C(=O)N2CCC[C@H]2C(=O)N[C@H](CCCCNC(=O)CN2CCN(CC(=O)O)CCN(CC(=O)O)CCN(CC(=O)O)CC2)C(N)=O)NC(=O)[C@H](CC(=O)O)NC1=O [compound 93, Ac-W-T-I-C(3)-N-N-W-(DAB-4-NHCOC7H15)-D-C(3)-W-P-[D-Lys(DOTA)]-NH2] (Ac-WTICNNW[Dab](Octanoyl)DCWP[dK](DOTA)-NH2; disulfide 4-10)
< 1 nM	CC[C@H](C)[C@H](NC(=O)[C@@H](NC(=O)[C@H](Cc1c[nH]c2ccc(F)cc12)NC(C)=O)[C@@H](C)O)C(=O)N[C@H]1CSSC[C@@H](C(=O)N[C@@H](Cc2c[nH]c3ccccc23)C(=O)N2CCC[C@H]2C(=O)N[C@H](CCCCNC(=O)CN2CCN(CC(=O)O)CCN(CC(=O)O)CCN(CC(=O)O)CC2)C(N)=O)NC(=O)[C@H](CC(=O)O)NC(=O)[C@H](Cc2c[nH]cn2)NC(=O)[C@H](Cc2c[nH]c3ccccc23)NC(=O)[C@H](CC(N)=O)NC(=O)[C@H](CC(N)=O)NC1=O [compound 100, Ac-(5Fluoro-W)-T-I-C(3)-N-N-W-H-D-C(3)-W-P-[D-Lys(DOTA)]-NH2] (Ac-[Trp(5-F)]TICNNWHDCWP[dK](DOTA)-NH2; disulfide 4-10)
1 to 10 nM	CC[C@H](C)[C@H](NC(=O)[C@@H](NC(=O)[C@H](Cc1c[nH]c2ccccc12)NC(C)=O)[C@@H](C)O)C(=O)N[C@H]1CSSC[C@@H](C(=O)N[C@@H](Cc2c[nH]c3ccccc23)C(=O)N2CCC[C@@]2(C)C(=O)N[C@H](CCCCNC(=O)CN2CCN(CC(=O)O)CCN(CC(=O)O)CCN(CC(=O)O)CC2)C(N)=O)NC(=O)[C@H](CC(=O)O)NC(=O)[C@H](Cc2c[nH]cn2)NC(=O)[C@H](Cc2c[nH]c3ccccc23)NC(=O)[C@H](CC(N)=O)NC(=O)[C@H](CC(N)=O)NC1=O [compound 105, Ac-W-T-I-C(3)-N-N-W-H-D-C(3)-W-(aMe-P)-[D-Lys(DOTA)]-NH2] (Ac-WTICNNWHDCW[αMeP][dK](DOTA)-NH2; disulfide 4-10)
< 1 nM	CC(=O)N[C@@H](Cc1c[nH]c2ccccc12)C(=O)N[C@H](C(=O)N[C@H](C(=O)N[C@H]1CSSC[C@@H](C(=O)N[C@@H](Cc2c[nH]c3ccccc23)C(=O)N2CCC[C@H]2C(=O)N[C@H](CCCCNC(=O)CN2CCN(CC(=O)O)CCN(CC(=O)O)CCN(CC(=O)O)CC2)C(N)=O)NC(=O)[C@H](CC(=O)O)NC(=O)[C@H](Cc2c[nH]cn2)NC(=O)[C@H](Cc2c[nH]c3ccccc23)NC(=O)[C@H](CC(N)=O)NC(=O)[C@H](CC(N)=O)NC1=O)C1CCCCC1)[C@@H](C)O [compound 106, Ac-W-T-(Chg)-C(3)-N-N-W-H-D-C(3)-W-P-[D-Lys(DOTA)]-NH2] (Ac-WT[Chg]CNNWHDCWP[dK](DOTA)-NH2; disulfide 4-10)
10 to 100 nM	CC(=O)N[C@@H](Cc1c[nH]c2ccccc12)C(=O)N[C@H](C(=O)N[C@@H](Cc1cccc2ccccc12)C(=O)N[C@H]1CSSC[C@@H](C(=O)N[C@@H](Cc2c[nH]c3ccccc23)C(=O)N2CCC[C@H]2C(=O)N[C@H](CCCCNC(=O)CN2CCN(CC(=O)O)CCN(CC(=O)O)CCN(CC(=O)O)CC2)C(N)=O)NC(=O)[C@H](CC(=O)O)NC(=O)[C@H](Cc2c[nH]cn2)NC(=O)[C@H](Cc2c[nH]c3ccccc23)NC(=O)[C@H](CC(N)=O)NC(=O)[C@H](CC(N)=O)NC1=O)[C@@H](C)O [compound 107, Ac-W-T-(1Nal)-C(3)-N-N-W-H-D-C(3)-W-P-[D-Lys(DOTA)]-NH2] (Ac-WT[1Nal]CNNWHDCWP[dK](DOTA)-NH2; disulfide 4-10)
< 1 nM	CC[C@H](C)[C@H](NC(=O)[C@@H](NC(=O)[C@H](Cc1c[nH]c2ccccc12)NC(C)=O)[C@@H](C)O)C(=O)N[C@H]1CSSC[C@@H](C(=O)N[C@@H](Cc2c[nH]c3ccccc23)C(=O)N2C[C@H](F)C[C@H]2C(=O)N[C@H](CCCCNC(=O)CN2CCN(CC(=O)O)CCN(CC(=O)O)CCN(CC(=O)O)CC2)C(N)=O)NC(=O)[C@H](CC(=O)O)NC(=O)[C@H](Cc2c[nH]cn2)NC(=O)[C@H](Cc2c[nH]c3ccccc23)NC(=O)[C@H](CC(N)=O)NC(=O)[C@H](CC(N)=O)NC1=O [compound 113, Ac-W-T-I-C(3)-N-N-W-H-D-C(3)-W-(trans4Fluoro-P)-[D-Lys(DOTA)]-NH2] (Ac-WTICNNWHDCW[Pro(trans-4-F)][dK](DOTA)-NH2; disulfide 4-10)
< 1 nM	CC(=O)N[C@@H](Cc1c[nH]c2ccccc12)C(=O)N[C@H](C(=O)N[C@@H](Cc1ccccc1C(F)(F)F)C(=O)N[C@H]1CSSC[C@@H](C(=O)N[C@@H](Cc2c[nH]c3ccccc23)C(=O)N2CCC[C@H]2C(=O)N[C@H](CCCCNC(=O)CN2CCN(CC(=O)O)CCN(CC(=O)O)CCN(CC(=O)O)CC2)C(N)=O)NC(=O)[C@H](CC(=O)O)NC(=O)[C@H](Cc2c[nH]cn2)NC(=O)[C@H](Cc2c[nH]c3ccccc23)NC(=O)[C@H](CC(N)=O)NC(=O)[C@H](CC(N)=O)NC1=O)[C@@H](C)O [compound 114, Ac-W-T-(2CF3-F)-C(3)-N-N-W-H-D-C(3)-W-P-[D-Lys(DOTA)]-NH2] (Ac-WT[Phe(2-CF3)]CNNWHDCWP[dK](DOTA)-NH2; disulfide 4-10)
1 to 10 nM	CC(=O)N[C@@H](Cc1c[nH]c2ccccc12)C(=O)N[C@H](C(=O)N[C@H](CC(=O)N[C@H]1CSSC[C@@H](C(=O)N[C@@H](Cc2c[nH]c3ccccc23)C(=O)N2CCC[C@H]2C(=O)N[C@H](CCCCNC(=O)CN2CCN(CC(=O)O)CCN(CC(=O)O)CCN(CC(=O)O)CC2)C(N)=O)NC(=O)[C@H](CC(=O)O)NC(=O)[C@H](Cc2c[nH]cn2)NC(=O)[C@H](Cc2c[nH]c3ccccc23)NC(=O)[C@H](CC(N)=O)NC(=O)[C@H](CC(N)=O)NC1=O)Cc1ccccc1)[C@@H](C)O [compound 115, Ac-W-T-(2PhEt-A)-C(3)-N-N-W-H-D-C(3)-W-P-[D-Lys(DOTA)]-NH2] (Ac-WT[β3hF]CNNWHDCWP[dK](DOTA)-NH2; disulfide 4-10)
10 to 100 nM	CC(=O)N[C@@H](Cc1c[nH]c2ccccc12)C(=O)N[C@H](C(=O)N[C@@H](Cc1ccc2ccccc2c1)C(=O)N[C@H]1CSSC[C@@H](C(=O)N[C@@H](Cc2c[nH]c3ccccc23)C(=O)N2CCC[C@H]2C(=O)N[C@H](CCCCNC(=O)CN2CCN(CC(=O)O)CCN(CC(=O)O)CCN(CC(=O)O)CC2)C(N)=O)NC(=O)[C@H](CC(=O)O)NC(=O)[C@H](Cc2c[nH]cn2)NC(=O)[C@H](Cc2c[nH]c3ccccc23)NC(=O)[C@H](CC(N)=O)NC(=O)[C@H](CC(N)=O)NC1=O)[C@@H](C)O [compound 116, Ac-W-T-(2Nal)-C(3)-N-N-W-H-D-C(3)-W-P-[D-Lys(DOTA)]-NH2] (Ac-WT[2Nal]CNNWHDCWP[dK](DOTA)-NH2; disulfide 4-10)
10 to 100 nM	CC(=O)N[C@@H](Cc1c[nH]c2ccc(F)cc12)C(=O)N[C@H](C(=O)N[C@H](C(=O)N[C@H]1CSSC[C@@H](C(=O)N[C@@H](Cc2c[nH]c3ncccc23)C(=O)N2CC[C@H]2C(=O)NC(CCCCNC(=O)CN2CCN(CC(=O)O)CCN(CC(=O)O)CCN(CC(=O)O)CC2)C(N)=O)NC(=O)[C@H](CC(=O)O)NC(=O)[C@H](Cc2cnc[nH]2)NC(=O)[C@H](Cc2ccc(F)cc2)NC(=O)[C@H](CC(N)=O)NC(=O)[C@H](CC(N)=O)NC1=O)C(C)(C)C)[C@@H](C)O (stereo partly drawn) [compound 121, Ac-(5Fluoro-W)-T-(Tbg)-C(3)-N-N-(4Fluoro-F)-H-D-C(3)-(7Aza-W)-(Aze)-[D-Lys(DOTA)]-NH2] (Ac-[Trp(5-F)]T[Tle]CNN[Phe(4-F)]HDC[Trp(7-aza)][Aze][ξK](DOTA)-NH2; disulfide 4-10)
1 to 10 nM	CCC(CC)[C@H](NC(=O)[C@@H](NC(=O)[C@H](Cc1c[nH]c2ccc(F)cc12)NC(C)=O)[C@@H](C)O)C(=O)N[C@H]1CSSC[C@@H](C(=O)N[C@@H](Cc2c[nH]c3ncccc23)C(=O)N2CC[C@H]2C(=O)NC(CCCCNC(=O)CN2CCN(CC(=O)O)CCN(CC(=O)O)CCN(CC(=O)O)CC2)C(N)=O)NC(=O)[C@H](CC(=O)O)NC(=O)[C@H](Cc2cnc[nH]2)NC(=O)[C@H](Cc2ccc(F)cc2)NC(=O)[C@H](CC(N)=O)NC(=O)[C@H](CC(N)=O)NC1=O (stereo partly drawn) [compound 122, Ac-(5Fluoro-W)-T-(Env)-C(3)-N-N-(4Fluoro-F)-H-D-C(3)-(7Aza-W)-(Aze)-[D-Lys(DOTA)]-NH2] (Ac-[Trp(5-F)]T[Nva(3-Et)]CNN[Phe(4-F)]HDC[Trp(7-aza)][Aze][ξK](DOTA)-NH2; disulfide 4-10)
